Type in all cases: biochemical
For one experiment, the target named is T1, NmeNTR (Neisseria meningitidis, UniProt Q9K022).
T1 construct: gene NMB0804
Kind of experiment: HPLC CB1954 nitroreductase assay. An excerpt: HPLC CB1954 nitroreductase assay on NmeNTR

A further experiment has as its target T2, HsoNTR (Histophilus somni, UniProt A0A9Q6YZG6).
T2 construct: gene JFL49_05940
Kind of experiment: HPLC CB1954 nitroreductase assay. An excerpt:
HPLC CB1954 nitroreductase assay on HsoNTR

For a further experiment, the target named is T3, NfnB (Escherichia coli, UniProt P38489).
T3 construct: gene nfsB; untagged as far as told; expressed from fdx promoter at pyrE locus of C. sporogenes strain E1; cell lysate
T3 sequence (P38489 1-217): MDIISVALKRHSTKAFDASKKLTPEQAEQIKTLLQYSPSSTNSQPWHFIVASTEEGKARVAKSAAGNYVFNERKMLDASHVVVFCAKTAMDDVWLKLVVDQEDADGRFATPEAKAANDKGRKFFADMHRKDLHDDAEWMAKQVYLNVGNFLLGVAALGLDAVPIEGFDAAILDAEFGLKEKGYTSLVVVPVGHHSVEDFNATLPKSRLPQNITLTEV
Nature of the experiment: menadione reductase activity of C. sporogenes E1 lysate. Conditions: background of endogenous quinone reductases in wild type and pyrE mutant controls.

Where [1] appears, read: co-substrate CB1954, read-out: Km ^NADH.
Where [2] appears, read: kcat is with NADH as co-substrate, read-out: Km ^CB1954.

Broadly, the Km is the substrate concentration at which the rate is half of its maximum.

Like-named read-outs stand apart in the source and are kept apart here.

T2 sequence (A0A9Q6YZG6 entry or part of it): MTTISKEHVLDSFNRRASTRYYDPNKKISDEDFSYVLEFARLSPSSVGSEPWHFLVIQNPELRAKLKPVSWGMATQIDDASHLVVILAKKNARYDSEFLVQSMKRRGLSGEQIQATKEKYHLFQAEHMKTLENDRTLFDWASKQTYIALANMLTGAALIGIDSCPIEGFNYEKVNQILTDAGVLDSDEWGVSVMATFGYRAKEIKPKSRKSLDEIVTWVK
T1 sequence (Q9K022 entry or part of it): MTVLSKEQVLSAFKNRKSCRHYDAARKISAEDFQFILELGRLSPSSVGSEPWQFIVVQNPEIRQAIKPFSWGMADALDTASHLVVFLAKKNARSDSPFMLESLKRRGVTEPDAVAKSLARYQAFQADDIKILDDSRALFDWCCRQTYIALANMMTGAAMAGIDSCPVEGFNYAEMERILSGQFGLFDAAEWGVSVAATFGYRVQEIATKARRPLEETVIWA

With `NC(=O)C1=CN([C@@H]2O[C@H](COP(=O)(O)OP(=O)(O)OC[C@H]3O[C@@H](n4cnc5c(N)ncnc54)[C@H](O)[C@@H]3O)[C@@H](O)[C@H]2O)C=CC1` [NADH], the Km amounted to 188 µM at NmeNTR (setting [1]) and 644 µM at HsoNTR (setting [1]).
In the case of `NC(=O)c1cc(N2CC2)c([N+](=O)[O-])cc1[N+](=O)[O-]` [CB1954, 5-(aziridin-1-yl)-2,4-dinitrobenzamide], the values for the Km at NmeNTR (setting [2]) and at HsoNTR (setting [2]) were 2.47 µM and 22 µM, respectively.
In the case of `CC1=CC(=O)c2ccccc2C1=O` [menadione], the “specific menadione reductase activity” value at NfnB was “both E1 and N1 contained menadione reductase activity elevated significantly above the endogenous levels”.
